We go through 2 compounds from patent US8030359B2, “Polymer formulations of CETP inhibitors” (Merck Sharp & Dohme Corp., priority 2006, dated 2011).

Series [1] can be described thus: Pharmacokinetics (bioavailability) of formulations dosed to fasted Rhesus monkeys. The class given is in vivo. Conditions: rhesus monkey, blood, 3 fasted Rhesus monkeys. As for the experimental part: Examples of preparations of pharmaceutical formulations are provided below. Bioavailability is determined in vivo by dosing trial formulations and/or other formulations of the active pharmaceutical ingredient (API) to Rhesus monkeys (normally three monkeys per trial) at a dose of 1 mg/kg of the API and then measuring the amount of API in the serum or blood as a function of time. Comparisons are made with other formulations containing the same amount and same concentration of the API, such as a solid formulation with conventional excipients or a liquid filled gelatin capsule containing equal parts by weight of Tween 80 and Cremophor EL and varying amounts of the API. The API is any compound of Formula I to Ij, and most often is Compound H.
A formulation as described above comprised of 8.8% (w/w) Compound II, 35.2% HPMCAS-LF, 25.75% lactose monohydrate, 25.75% microcrystalline cellulose (Avicel PH 102), 3% croscarmellose sodium, 0.5% colloidal silicon dioxide, and 1% magnesium stearate was transferred to capsules (568 mg fill weight), with each capsule containing […] of Compound H. The pharmacokinetic profile of this composition was tested in a panel of 3 fasted Rhesus monkeys with a single dose of 1 mg/kg.
For comparison, a formulation containing Compound II without the polymer was made and tested, as follows. The non-polymer formulation contained 5% of Compound II, 5% SDS surfactant, 1.5% HPC-EXF, 1% croscarmellose sodium, and 87.5% lactose, and was prepared by wet granulation and used in a dry-filled capsule. The pharmacokinetic profile of this composition was measured by administering a single 1 mg/kg dose to a panel of 3 fasted Rhesus monkeys and then measuring the amount of Compound II in the blood of the monkeys for a period of at least 24 hours. […] The pharmacokinetics are not as good for the “conventional” formulation as for the polymer formulations, even though the “conventional” formulation used as a control included a surfactant.
The last 3 rows summarize pharmacokinetic data obtained by administering a single dose of the formulation at a dose of 1 mg/kg to panels of 3 fasted Rhesus monkeys and measuring the concentration of Compound II in the blood for a period of at least 24 hours. The compositions can be varied more broadly to obtain desired properties, as summarized after the table.

The conditions of series [2]: some patients who were taking torcetrapib; cited from earlier work.
The conditions of series [3]: Phase III clinical trials, long-term outcomes study, group taking the drug compared with the control group; cited from earlier work.
Where [4] appears, read: po, 1 mg/kg, HME tablet formulation with 8% Compound II, 28% copovidone, 4% Vitamin E TPGS, single dose 1 mg/kg.
Where [5] appears, read: po, 1 mg/kg, HME tablet formulation with 10% Compound II, 35% copovidone, 5% Vitamin E TPGS, single dose 1 mg/kg.
Setting [6] is: po, 1 mg/kg, HME tablet formulation with 12% Compound II, 42% copovidone, 6% Vitamin E TPGS, single dose 1 mg/kg.
Where [7] appears, read: po, 1 mg/kg, spray dried polymer formulation in capsules (8.8% Compound II, 35.2% HPMCAS-LF), single dose 1 mg/kg, 24 hours.
[8] abbreviates: oral, non-polymer "conventional" control formulation (5% Compound II, 5% SDS, 1.5% HPC-EXF, 1% croscarmellose sodium, 87.5% lactose), wet granulation, dry-filled capsule, single 1 mg/kg dose.

Like-named read-outs stand apart in the source and are kept apart here.

For orientation: Cmax means the highest concentration seen after dosing. By Tmax is commonly meant the time from dosing to the highest level. For the compound `COc1cc(F)c(C(C)C)cc1-c1ccc(C(F)(F)F)cc1CN1C(=O)O[C@H](c2cc(C(F)(F)F)cc(C(F)(F)F)c2)[C@@H]1C` [Compound II, (4S,5R)-5-[3,5-bis(trifluoromethyl)phenyl]-3-{[4′-fluoro-5′-isopropyl-2′-methoxy-4-(trifluoromethyl)biphenyl-2-yl]methyl}-4-methyl-1,3-oxazolidin-2-one], the Cmax in series [1] (setting [4]) amounted to 0.1 ± 0.01 µM; in series [1] (setting [5]), 0.1 ± 0.01 µM; in series [1] (setting [6]), 0.13 ± 0.01 µM; in series [1] (setting [7]) it was 0.12 ± 0.08 µM; in series [1] (setting [8]) it was 0.04 ± 0.03 µM. In addition, the Tmax in series [1] (setting [4]) was found to be 4 ± 2 h; in series [1] (setting [5]) it was 5.3 ± 2 h; in series [1] (setting [6]) it was 6.7 ± 1.2 h; in series [1] (setting [7]), 6.7 ± 2.3 h; in series [1] (setting [8]), 18.7 ± 9.2 h. The AUC(0-t) in series [1] (po, 1 mg/kg, HME tablet formulation with 8% Compound II, 28% copovidone, 4% Vitamin E TPGS, single dose 1 mg/kg, read-out: AUC (0-24 hrs)) turned out to be 1730 ± 280 nM·h; in series [1] (po, 1 mg/kg, HME tablet formulation with 10% Compound II, 35% copovidone, 5% Vitamin E TPGS, single dose 1 mg/kg, read-out: AUC (0-24 hrs)), 1620 ± 270 nM·h; in series [1] (po, 1 mg/kg, HME tablet formulation with 12% Compound II, 42% copovidone, 6% Vitamin E TPGS, single dose 1 mg/kg, read-out: AUC (0-24 hrs)) it was 2290 ± 210 nM·h; in series [1] (po, 1 mg/kg, spray dried polymer formulation in capsules (8.8% Compound II, 35.2% HPMCAS-LF), single dose 1 mg/kg, 24 hours, read-out: AUC0-24), 1990 ± 1100 nM·h.

Consider `CCOC(=O)N1c2ccc(C(F)(F)F)cc2[C@@H](N(Cc2cc(C(F)(F)F)cc(C(F)(F)F)c2)C(=O)OC)C[C@H]1CC` [torcetrapib], for which, in series [2], the “effect on blood pressure” value was “increase blood pressure”. Besides, the “mortality versus control group” value in series [3] was “increase in mortality”.
